Legend:
Type in all cases: functional
UACC-62 = assay: Growth inhibition of human UACC62 cells assessed as cell growth at 0.003 uM incubated for 48 hrs by sulforhodamine B assay relative to control; details: UACC-62, 48 h, read-out: Activity
OVCAR-5 = assay: Growth inhibition of human OVCAR5 cells assessed as cell growth at 3 uM incubated for 48 hrs by sulforhodamine B assay relative to control; details: OVCAR-5, 48 h, read-out: Activity
SK-MEL-2 = assay: Growth inhibition of human SK-MEL-2 cells assessed as cell growth at 0.003 uM incubated for 48 hrs by sulforhodamine B assay relative to control; details: SK-MEL-2, 48 h, read-out: Activity
NCI-H460 = assay: Growth inhibition of human NCI-H460 cells assessed as cell growth at 0.03 uM incubated for 48 hrs by sulforhodamine B assay relative to control; details: NCI-H460, 48 h, read-out: Activity
Hs-578T [1] = assay: Growth inhibition of human Hs 578T cells assessed as cell growth at 0.03 uM incubated for 48 hrs by sulforhodamine B assay relative to control; details: read-out: Activity
MCF7 = assay: Growth inhibition of human MCF7 cells assessed as cell growth at 0.03 uM incubated for 48 hrs by sulforhodamine B assay relative to control; details: MCF7, 48 h, read-out: Activity
NCI-H522 [2] = assay: Growth inhibition of human NCI-H522 cells assessed as cell growth at 0.03 uM incubated for 48 hrs by sulforhodamine B assay relative to control; details: NCI-H522, 48 h, read-out: Activity
IGROV-1 = assay: Growth inhibition of human IGROV1 cells assessed as cell growth at 0.003 uM incubated for 48 hrs by sulforhodamine B assay relative to control; details: IGROV-1, 48 h, read-out: Activity
U-251 [3] = assay: Growth inhibition of human U251 cells assessed as cell growth at 30 uM incubated for 48 hrs by sulforhodamine B assay relative to control; details: U-251, 48 h, read-out: Activity
HL-60(TB) = assay: Growth inhibition of human HL-60(TB) cells assessed as cell growth at 0.003 uM incubated for 48 hrs by sulforhodamine B assay relative to control; details: HL-60, 48 h, read-out: Activity
NCI-H23 = assay: Growth inhibition of human NCI-H23 cells assessed as cell growth at 0.3 uM incubated for 48 hrs by sulforhodamine B assay relative to control; details: NCI-H23, 48 h, read-out: Activity
A549 = assay: Growth inhibition of human A549/ATCC cells assessed as cell growth at 3 uM incubated for 48 hrs by sulforhodamine B assay relative to control; details: A549, 48 h, read-out: Activity
NCI-H322M = assay: Growth inhibition of human NCI-H322M cells assessed as cell growth at 3 uM incubated for 48 hrs by sulforhodamine B assay relative to control; details: read-out: Activity
CCRF-CEM [4] = assay: Growth inhibition of human CCRF-CEM cells assessed as cell growth at 3 uM incubated for 48 hrs by sulforhodamine B assay relative to control; details: read-out: Activity
HOP-62 [5] = assay: Growth inhibition of human HOP62 cells assessed as cell growth at 3 uM incubated for 48 hrs by sulforhodamine B assay relative to control; details: HOP-62, 48 h, read-out: Activity
HOP-92 [6] = assay: Growth inhibition of human HOP92 cells assessed as cell growth at 0.03 uM incubated for 48 hrs by sulforhodamine B assay relative to control; details: HOP-92, 48 h, read-out: Activity
A498 [7] = assay: Growth inhibition of human A498 cells assessed as cell growth at 100 uM incubated for 48 hrs by sulforhodamine B assay relative to control; details: A498, 48 h, read-out: Activity
Hs-578T [8] = assay: Growth inhibition of human Hs 578T cells assessed as cell growth at 1 uM incubated for 48 hrs by sulforhodamine B assay relative to control; details: read-out: Activity
CCRF-CEM [9] = assay: Growth inhibition of human CCRF-CEM cells assessed as cell growth at 100 uM incubated for 48 hrs by sulforhodamine B assay relative to control; details: read-out: Activity
Malme-3M = assay: Growth inhibition of human MALME-3M cells assessed as cell growth at 1 uM incubated for 48 hrs by sulforhodamine B assay relative to control; details: read-out: Activity
BT-549 = assay: Growth inhibition of human BT549 cells assessed as cell growth at 0.01 uM incubated for 48 hrs by sulforhodamine B assay relative to control; details: BT-549, 48 h, read-out: Activity
SK-MEL-28 = assay: Growth inhibition of human SK-MEL-28 cells assessed as cell growth at 0.01 uM incubated for 48 hrs by sulforhodamine B assay relative to control; details: SK-MEL-28, 48 h, read-out: Activity
SN12C = assay: Growth inhibition of human SN12C cells assessed as cell growth at 100 uM incubated for 48 hrs by sulforhodamine B assay relative to control; details: read-out: Activity
OVCAR-4 = assay: Growth inhibition of human OVCAR4 cells assessed as cell growth at 10 uM incubated for 48 hrs by sulforhodamine B assay relative to control; details: OVCAR-4, 48 h, read-out: Activity
SNB-19 = assay: Growth inhibition of human SNB19 cells assessed as cell growth at 1 uM incubated for 48 hrs by sulforhodamine B assay relative to control; details: SNB-19, 48 h, read-out: Activity
SNB-75 = assay: Growth inhibition of human SNB75 cells assessed as cell growth at 0.1 uM incubated for 48 hrs by sulforhodamine B assay relative to control; details: SNB-75, 48 h, read-out: Activity
U-251 [10] = assay: Growth inhibition of human U251 cells assessed as cell growth at 100 uM incubated for 48 hrs by sulforhodamine B assay relative to control; details: U-251, 48 h, read-out: Activity
HOP-62 [11] = assay: Growth inhibition of human HOP62 cells assessed as cell growth at 10 uM incubated for 48 hrs by sulforhodamine B assay relative to control; details: HOP-62, 48 h, read-out: Activity
SW-620 = assay: Growth inhibition of human SW620 cells assessed as cell growth at 10 uM incubated for 48 hrs by sulforhodamine B assay relative to control; details: SW-620, 48 h, read-out: Activity
MDA-MB-231 = assay: Growth inhibition of human MDA-MB-231 cells assessed as cell growth at 100 uM incubated for 48 hrs by sulforhodamine B assay relative to control; details: MDA-MB-231, 48 h, read-out: Activity
NCI-H522 [12] = assay: Growth inhibition of human NCI-H522 cells assessed as cell growth at 0.1 uM incubated for 48 hrs by sulforhodamine B assay relative to control; details: NCI-H522, 48 h, read-out: Activity
A498 [13] = assay: Growth inhibition of human A498 cells assessed as cell growth at 10 uM incubated for 48 hrs by sulforhodamine B assay relative to control; details: A498, 48 h, read-out: Activity
TK-10 = assay: Growth inhibition of human TK10 cells assessed as cell growth at 0.01 uM incubated for 48 hrs by sulforhodamine B assay relative to control; details: TK-10, 48 h, read-out: Activity
HOP-92 [14] = assay: Growth inhibition of human HOP92 cells assessed as cell growth at 0.1 uM incubated for 48 hrs by sulforhodamine B assay relative to control; details: HOP-92, 48 h, read-out: Activity

| SMILES | growth at 0.003 µM (UACC-62) | growth at 3 µM (OVCAR-5) | growth at 0.003 µM (SK-MEL-2) | growth at 0.03 µM (NCI-H460) | growth at 0.03 µM (Hs-578T [1]) | growth at 0.03 µM (MCF7) | growth at 0.03 µM (NCI-H522 [2]) | growth at 0.003 µM (IGROV-1) | growth at 30 µM (U-251 [3]) | growth at 0.003 µM (HL-60(TB)) | growth at 0.3 µM (NCI-H23) | growth at 3 µM (A549) | growth at 3 µM (NCI-H322M) | growth at 3 µM (CCRF-CEM [4]) | growth at 3 µM (HOP-62 [5]) | growth at 0.03 µM (HOP-92 [6]) | growth at 100 µM (A498 [7]) | growth at 1 µM (Hs-578T [8]) | growth at 100 µM (CCRF-CEM [9]) | growth at 1 µM (Malme-3M) | also measured |
| --- | --- | --- | --- | --- | --- | --- | --- | --- | --- | --- | --- | --- | --- | --- | --- | --- | --- | --- | --- | --- | --- |
| COc1cc2cc(Oc3ccc(NC(=O)Nc4ccc(Cl)c(C(F)(F)F)c4)cc3)c(C)nc2cc1OC | 96% | 32% | 96% | 105% | 109% | 97% | 93% | 107% | -89% | 96% | 92% | 10% | 35% | -2% | 26% | 89% | – | – | – | – | – |
| COc1cc2cc(Oc3ccc(NC(=O)Nc4ccc(Cl)c(Cl)c4)cc3)c(C)nc2cc1OC | – | – | – | – | – | – | – | – | – | – | – | – | – | – | – | – | -56% | 113% | -26% | 109% | growth at 0.01 µM (BT-549): 78%; growth at 0.01 µM (SK-MEL-28): 101%; growth at 100 µM (SN12C): -41%; growth at 10 µM (OVCAR-4): -8%; growth at 1 µM (SNB-19): 92%; growth at 0.1 µM (SNB-75): 75%; growth at 100 µM (U-251 [10]): -100%; growth at 10 µM (HOP-62 [11]): 8%; growth at 10 µM (SW-620): 16%; growth at 100 µM (MDA-MB-231): -100%; growth at 0.1 µM (NCI-H522 [12]): 99%; growth at 10 µM (A498 [13]): -8%; growth at 0.01 µM (TK-10): 106%; growth at 0.1 µM (HOP-92 [14]): 92% |
| COc1cc2cc(Oc3ccc(NC(=O)Nc4cc(C(F)(F)F)cc(C(F)(F)F)c4)cc3)c(C)nc2cc1OC | – | – | – | – | – | – | – | – | – | – | – | – | – | – | – | – | -93% | 101% | -40% | 54% | growth at 0.01 µM (BT-549): 91%; growth at 0.01 µM (SK-MEL-28): 91%; growth at 100 µM (SN12C): -74%; growth at 10 µM (OVCAR-4): -31%; growth at 1 µM (SNB-19): 39%; growth at 0.1 µM (SNB-75): 74%; growth at 100 µM (U-251 [10]): -83%; growth at 10 µM (HOP-62 [11]): -82%; growth at 10 µM (SW-620): -26%; growth at 100 µM (MDA-MB-231): -83%; growth at 0.1 µM (NCI-H522 [12]): 77%; growth at 10 µM (A498 [13]): -43%; growth at 0.01 µM (TK-10): 96%; growth at 0.1 µM (HOP-92 [14]): 90% |
| Cc1nc2cc(O)c(O)cc2cc1Oc1ccc(NC(=O)Nc2ccc(Cl)c(Cl)c2)cc1 | 96% | 119% | 107% | 99% | 85% | 89% | 95% | 104% | 3% | 102% | 94% | 98% | 105% | 76% | 87% | 80% | – | – | – | – | – |
